The test system of data set [1] is Trypanosoma brucei rhodesiense. Description: Antiprotozoal activity against trypomastigote stage of Trypanosoma brucei rhodesiense STIB900 after 72 hrs by Alamar Blue assay. In kind it is functional, organism-based. The note with it: STIB900, 72 h. On the technique in general: Resazurin is reduced to fluorescent resorufin, in cell work by metabolically active cells.

In data set [2] the test system is Trypanosoma cruzi. Nature of the data set: Antitrypanosomal activity against Trypanosoma cruzi Tulahuen C4 amastigotes harboring LacZ infected in rat L6 cells after 96 hrs by CPRG/Nonidet reagent based photometric analysis. It counts as functional, organism-based. The note with it: Tulahuen C4, L6, 96 h.
The test system of data set [3] is Leishmania donovani. Description: Antileishmanial activity against Leishmania donovani MHOM/ET/67/L82 axenic amastigotes after 72 hrs by alamar blue staining based fluorescence assay. It counts as functional, organism-based. The note with it: MHOM/ET/67/L82, 72 h.
For data set [4], the system named is L6. Description: Cytotoxicity against rat L6 cells after 72 hrs by alamar blue assay. In kind it is cell-based. The note with it: L6, 72 h.
Data set [5] is described as follows: Selectivity index, ratio of IC50 for rat L6 cells to IC50 for trypomastigote stage of Trypanosoma brucei rhodesiense STIB900. It counts as toxicity. The note with it: read-out: Ratio IC50.
Data set [6] can be described thus: Selectivity index, ratio of IC50 for rat L6 cells to IC50 for Trypanosoma cruzi Tulahuen C4 amastigotes harboring LacZ infected in rat L6 cells. In kind it is toxicity, cell-based. The following applies: read-out: Ratio IC50.
Data set [7] can be described thus: Selectivity index, ratio of IC50 for rat L6 cells to IC50 for Leishmania donovani MHOM/ET/67/L82 axenic amastigotes. In kind it is toxicity. The following applies: read-out: Ratio IC50.
Data set [8] in a line: Selectivity index, ratio of IC50 for rat L6 cells to IC50 for IEF stage of Plasmodium falciparum NF54. In kind it is toxicity. The note with it: read-out: Ratio IC50.
In data set [9] the test system is Plasmodium falciparum. Description: microbe, parasite or virus in culture. The note with it: NF54.
Description: Antiplasmodial activity against IEF stage of Plasmodium falciparum NF54 assessed as reduction in [3H]hypoxanthine incorporation preincubated for 48 hrs followed by [3H]hypoxanthine addition measured after 24 hrs by liquid scintillation counting method

The IC50 is the point on the concentration scale where inhibition reaches its midpoint. High values mean lower potency, low ones higher potency. As to `CC(C)=C[C@H]1[C@@H]2C(C)=CC[C@]34CC[C@H]5C(C)(C)CCC[C@]56C[C@]23[C@@](O)(O6)C(=O)[C@]1(C(C)C)C4=O`, the IC50 in data set [1] is 66.9 µM; in data set [2], 35.8 µM; in data set [3], 21.3 µM; in data set [4], 47.2 µM; in data set [9] it was 1.1 µM. The selectivity ratio in data set [5] came out at 0.7; in [6] it was 1.3; in data set [7], 2.2; in [8], 44.2.
Regarding `CC(C)C1=C2OC(C)(C)[C@H]3C[C@@]45O[C@]4(C)[C@H](O)C[C@@]4(CC[C@H]6C(C)(C)CCC[C@]67C[C@@]45[C@@]23O7)C1=O`, the IC50 in data set [1] amounted to 74.6 µM; in data set [2], 19.8 µM; in [3], 44.1 µM; in [4], 46.9 µM; in [9], 3.6 µM. Also, the selectivity ratio in [5] was found to be 0.6; in data set [6], 2.4; in data set [7], 1.1; in data set [8], 12.9.
In the case of `CC(=O)[C@@]12C[C@H]3C(C)(C)OC4=C(C(C)C)C(=O)[C@]5(CC[C@H]6C(C)(C)CCC[C@]67C[C@@]51[C@@]43O7)C[C@H]2O`, the IC50 in [1] turned out to be 85.8 µM; in [2] it was 33.9 µM; in data set [3], 12.3 µM; in data set [4], 41.1 µM; in [9], 7.9 µM. Also, the selectivity ratio in data set [5] was determined as 0.5; in data set [6] it was 1.2; in data set [7], 3.3; in [8] it was 5.2.
In turn, `CCCCCCCCCCCCCCCCOP(=O)([O-])OCC[N+](C)(C)C` [MILTEFOSINE] returned an IC50 in [3] of 0.9 µM.
`C[C@@H]1CC[C@H]2[C@@H](C)C(=O)O[C@@H]3O[C@@]4(C)CC[C@@H]1[C@]32OO4` [ARTEMISININ]: the IC50 in data set [9] stood at 0.008 µM. That is a single-digit nanomolar value.
In the case of `CC1=C2C[C@@H]3C(C)(C)O[C@]45O[C@@]4(C(C)C)C(=O)[C@]4(CC[C@H]6C(C)(C)CCC[C@]67C[C@]24[C@]35O7)CC1=O`, the IC50 in [1] worked out at 30.5 µM; in data set [2], 11.5 µM; in data set [3], 12.3 µM; in data set [4], 72.2 µM; in [9], 1.3 µM. The selectivity ratio came to 2.4 in data set [5], 6.3 in data set [6], 5.9 in data set [7] and 56.9 in data set [8].
With `C=CC1=C[C@@H]2[C@H]3C(C)=CO[C@]45O[C@]67CCCC(C)(C)[C@@H]6CC[C@](C1)(C(=O)[C@]3(C(C)C)C4=O)[C@]25C7`, the half-inhibitory concentration (IC50) was 24.6 µM in data set [1]; 47.9 µM in data set [2]; 15.6 µM in [3]; 41.6 µM in data set [4]; 1.9 µM in data set [9]. Further, the selectivity ratio in data set [5] was 1.7; in data set [6], 0.9; in data set [7], 2.7; in [8] it was 22.
With `Nc1nc(N)nc(Nc2ccc([As]3SCC(CO)S3)cc2)n1` (configuration not stated) [MELARSOPROL], the half-inhibitory concentration (IC50) in data set [1] amounted to 0.04 µM.
The molecule `O=C(Cn1ccnc1[N+](=O)[O-])NCc1ccccc1` [BENZNIDAZOLE] registered an IC50 in data set [2] of 5.1 µM. That is a single-digit micromolar value.
On to `CC1=C2[C@H](O)[C@@H]3C(C)(C)OC4=C(C(C)C)C(=O)[C@]5(CC[C@H]6C(C)(C)CCC[C@]67C[C@]25[C@@]43O7)CC1=O`, for which the IC50 in [1] was 45.3 µM; in data set [2] it was 3.8 µM; in [3], 7.5 µM; in data set [4], 13.6 µM; in [9], 7.5 µM. For the same molecule, the selectivity ratio in data set [5] turned out to be 0.3; in data set [6], 3.6; in [7], 1.8; in data set [8], 1.8.
Turning to `CC1=C2C[C@@H]3C(C)(C)OC4=C(C(C)C)C(=O)[C@]5(CC[C@H]6C(C)(C)CCC[C@]67C[C@]25[C@@]43O7)CC1=O`, the IC50 in data set [1] was found to be 56 µM; in data set [2], 3.5 µM; in [3] it was 15.5 µM; in data set [4], 37.2 µM; in [9] it was 0.6 µM. In addition, the selectivity ratio in data set [5] stood at 0.7; in [6], 10.7; in data set [7], 2.4; in data set [8], 62.2.
